{
  "source": "patent US12478602B2",
  "about": "“Method for treating a disorder” (priority 2023, dated 2025)",
  "key": {"[1]": {"system": "pediatric patients having autism spectrum disorder", "settings": "human, in vivo"}, "[2]": {"system": "mice having autism spectrum disorder", "test": "Social cognition experiment in mouse model of autism spectrum disorder", "assay_type": "in vivo", "settings": "500 mg/kg orally once a day for 2 weeks from age 3 weeks", "description": "(§1) Pregnant C57BL/6 mice were subcutaneously injected with valproic acid (VPA) at the time when the gestation period reached 12 days. Male mice were selected from the mice that were born from the pregnant mice that were subcutaneously injected with VPA, and these were used as animals for a mouse model of autism spectrum disorder.\n(§2) Since 3-week-old mice are at the critical stage, 3-week-old normal mice and 3-week-old mice having autism spectrum disorder were subjected to a sociality experiment, a social cognition experiment, and an anxiety experiment to identify the underlying features. 500 mg/kg of L-serine (hereinafter, referred to as AST-001) was orally administered for 2 weeks to mice having autism spectrum disorder, in which the underlying features had been confirmed. The mice having autism spectrum disorder, to which AST-001 had been orally administered for 2 weeks, were again subjected to a sociality experiment, a social cognition experiment, and an anxiety experiment.\nA social cognition experiment, which measures whether or not an experimental mouse moves in the direction of a non-familiar mouse in a case where the experimental mouse is placed between a non-familiar mouse and a familiar mouse, was carried out (see FIG. 1B). […]"}, "[3]": {"system": "mice having autism spectrum disorder", "test": "Individual recognition (novel object recognition, NOR) experiment", "assay_type": "in vivo, mouse", "settings": "180, 300, 480 or 600 mg/kg/day orally for 21 days; with increasing dosage", "procedure": "Mice having autism spectrum disorder were created by the same method as in Example 1.1. The 3-week-old male mice having autism spectrum disorder were orally injected with 180, 300, 480, or 600 mg/kg/day of L-serine for 21 days and then subjected to an individual recognition test. Eight mice were used for each experimental group. Mice tend to be more interested in a novel object than a familiar object. Therefore, a novel object recognition (NOR) experiment, which is an experiment for checking whether or not mice recognize a novel object, was carried out."}, "[4]": {"system": "mice having autism spectrum disorder", "test": "Sociality experiment (three-chamber) in mouse model of autism spectrum disorder", "assay_type": "in vivo", "settings": "500 mg/kg orally once a day for 2 weeks from age 3 weeks", "description": "as §1, §2\nA behavioral experiment, which checks whether or not an experimental mouse moves in the direction of a social object in a case where a social object (a non-familiar mouse) and a non-social object (an empty cage) are placed in both side rooms of a three-chamber having three connected rooms, was carried out (see FIG. 1A). […]"}},
  "data": [
    {"smiles": "N[C@@H](CO)C(=O)O", "note": "[AST-001, L-serine]", "values": [
      {"measurement": "Adverse event [TEAE], Events", "setting": "[1]", "result": 41},
      {"measurement": "interaction time with the non-familiar mouse vs interaction time with the familiar mouse", "setting": "[2]", "result": "significantly higher"},
      {"measurement": "preference index for the non-familiar mouse", "setting": "[2]", "result": "high"},
      {"measurement": "discrimination index (DI)", "setting": "[3]", "result": "increased"},
      {"measurement": "interaction time with the social object vs interaction time with the empty cage", "setting": "[4]", "result": "significantly higher"},
      {"measurement": "preference index for the social object", "setting": "[4]", "result": "high"}
    ]}
  ]
}
